Measurements as given in patent publication US20250042884A1, “3-ARYLOXYL-3-FIVE-MEMBERED HETEROARYL PROPYLAMINE COMPOUND AND USE THEREOF” (Shanghai Leado Pharmatech Co. Ltd., priority 2018, published 2025).

Experiments:
Sprague-Dawley rats = test: Rat hot plate pain model (acute pain); format: in vivo; details: 30 mg/kg intraperitoneal, hydrochloride salt
Description: Sprague-Dawley male, mature and unmated rats were placed at hot and cold plate (product model: PE34, US IITC) with constant 53±0.1° C. Mice with painful response such as licking claw, shaking claw or slightly jumping within 10-30 s were selected, and mice which evaded and jumped were abandoned. […] The test compound was freshly prepared on the day of administration. 0.9% NaCl physiological saline solution was prepared as solvent for later use. Appropriate amount of test compound was added into required volume of physiological saline and fully suspended, and the concentration of prepared drug was 1 mg/ml. […] After administration, the latency of heat pain was measured at 0.5 h, 1 h and 2 h after administration. In order to prevent animals from being scalded on the hot plate, the maximum incubation time was set to 30 s. Maximum possible effect (MPE) % was used to evaluate analgesic effect of each compound, i.e., MPE %=[(Post drug latency−baseline latency)/(30−baseline latency)]×100. MPE % at different time points was recorded.

SD rats = test: Rat SNL model, mechanical allodynia test (nerve pain); format: in vivo; details: 1 h after administration, 10 mg/kg oral, hydrochloride salt; control group 3.967 ± 0.775
Description: Male SPF grade SD rats, weighed 150 g-180 g, were selected. Aseptic operation during surgery was performed. The animals were anesthetized with sodium pentobarbital (50 mg/kg, intraperitoneal injection). The surgical area of animal waist was shaved and the skin was disinfected three times with iodophor and 70% ethanol. After the skin was dried, the operation was started. Surgical knife was used to make a longitudinal incision at the back of the sacrum of the animal waist to expose the left paraspinal muscles, and stretcher was used to separate muscle tissue to expose the spine. The left spinal nerves L5 and L6 were separated and ligated with a 6-0 silk thread, and the wound was sutured. After the operation, the animals were placed on electrothermal pad, and 5 mL of saline was injected subcutaneously to prevent dehydration. After the animals were fully awakened and could move around freely, the animals were put back in the cage.
After the operation, the animals were adapted in the experimental environment for 15min/day for 3 days.
The animals were weighed to calculate the dose. […] After administration, mechanical allodynia test was performed. The rat was individually placed in a plexiglass box with a grid on the bottom of the box to ensure that the rat claw could be tested. The rats were allowed to adapt the environment for 15 min before test. After the adaptation was completed, the test fiber was used to test the center of the left hind claw of the rat. The test fiber comprises 8 test strengths: 3.61 (0.4 g), 3.84 (0.6 g), 4.08 (1 g), 4.31 (2 g), 4.56 (4 g), 4.74 (6 g), 4.93 (8 g), and 5.18 (15 g). […] During the test, rapid withdrawal of animal claw was recorded as pain response. When the test fiber was removed from animal skin, the withdrawal of animal claw was also recorded as pain response. If animal moved, the pain response was not recorded, and the test was repeated. […]
Mechanical allodynia was expressed as withdrawal threshold (PWT) in rat behavioral test, which was calculated with the following formula: […]

ICR mice = test: Mice acetic acid writhing pain model (visceral and inflammatory pain); format: in vivo; details: for number of appearance of writhing reactions (visceral pain) within 30 min: 1 h before acetic acid, saline group 49 times
Description: Male ICR mice, 22-25 g, were fasted but allowed to drink water freely for 2 h before administration. All ICR mice were weighed and grouped randomly, each group had >10 animals. […] The drug was administrated by gavage based on the weight of mice. 1.5% acetic acid solution (0.1 ml/10 g) was injected intraperitoneally 1 h after administration, and the number of times of visceral pain in each group was observed within 30 min. When concave abdomen, stretched trunk and hind claw, and high buttocks appeared, one number point was recorded. Finally, the number of appearance of the above phenomenon was counted within 30 minutes.

SH-SY5Y cells = test: Cytotoxicity test (CCK-8), neurotoxicity; format: cell-based; details: Homo sapiens, 72 h
Description: In this example, hepatotoxicity and neurotoxicity of compound I-1 and S-duloxetine were detected.
HepG-2 and SH-SY5Y cells were placed in 10 cm dish and cultured at 37° C., 5% CO2 in a cell incubator. Trypsin was used to digest and resuspend cells and cells were counted. The cells were transferred to 96-well plate with 8000 cells in a well (100 μl/well), cultured at 37° C., 5% CO2 in a cell incubator for 24 hrs. A serial of gradient concentration dilutions of compound I-1 (prepared in example 2 of the present invention) with 2-fold dilution were prepared, and the system was 100 μL/well. The supernatant of cell culture system in the 96-well plate was removed on the first day, and fresh-prepared drug concentration system was add into culture plate wells (duplicate wells were set). The cells were cultured at 37° C., 5% CO2 in a cell incubator for 72 h. […] Microplate reader was used to measure the absorbance at 450 nm. Data was processed to calculate cytotoxicity, and IC50 was calculated by GraphPad Prism. […]
A (Dosing): the absorbance of wells containing cells, CCK-8 solution and drug solution.
A (control): the absorbance of wells containing medium and CCK-8 solution and without cells.
A (0 Dosing): the absorbance of wells containing cells and CCK-8 solution but without drug solution […]

TRPA1 = TRPA1 (Mus musculus (Mouse), UniProt Q8BLA8); test: Manual patch clamp test of TRPA1 inhibitory activity; format: cell-based; details: FIG. 2
Description: The TRPA1 inhibitory activity of compound I-1 was evaluated by manual patch clamp test method.

C57BL/6 mice = test: Mice formalin pain model (acute and inflammatory pain); format: in vivo; details: for Licking claw time (s) in phase II (10-60 min): hydrochloride salt, blank vehicle 349.55 ± 43.09
Source text: 150 C57BL/6 mice (male, 9-week aged) were randomly divided into 15 groups, (each group had 10 mice) for the analgesic activity test of 3 compounds in the mice formalin pain model respectively: the compound I-1 group (compound I-1 prepared in Example 2 whose hydrochloride salt was used in the experiment), the S-duloxetine group (its hydrochloride salt was used in the experiment) and the compound C1 group (the compound C1 prepared in Comparative Example 1, whose hydrochloride salt was used in the experiment). Before the start of experiments, the mice were allowed to adapt to the experimental environment for 72 h with free feeding and drinking water. The test drugs were administrated by intraperitoneal injection at a dosage as follows:
Compound I-1 group: blank vehicle (blank saline control), 0.1 mg/kg, 0.5 mg/kg, 1 mg/kg, 5 mg/kg and 10 mg/kg;
S-duloxetine group: blank vehicle (blank saline control), 1 mg/kg, 5 mg/kg, 10 mg/kg and 20 mg/kg;
Compound C1 group: blank vehicle (blank saline control), 0.1 mg/kg, 0.5 mg/kg, 1 mg/kg, 5 mg/kg and 10 mg/kg.
After administration, the mice were placed in a transparent, ventilated plexiglass cylinder for 1 h, and then 20 μl of 4% formalin solution was injected into the left hind plantar of mice of each group by microinjector, claw pain response in mice were real-time recorded by a mini-camera. The time length of licking left claw were used as an indicator of pain response, licking time in 0-10 min (phase I) and 10-60 min (phase II) were observed and recorded, and the statistical analysis was conducted. The half effective dose (ED50) of 3 compounds were calculated: ED50 referred to the dose of the drug which decreased licking time by half as compared with the blank control group. The smaller the ED50 value was, the lower the effective analgesic dose of the compound was and the better the analgesic effect was.

Chain of TRPA1 (Q8BLA8 whole entry): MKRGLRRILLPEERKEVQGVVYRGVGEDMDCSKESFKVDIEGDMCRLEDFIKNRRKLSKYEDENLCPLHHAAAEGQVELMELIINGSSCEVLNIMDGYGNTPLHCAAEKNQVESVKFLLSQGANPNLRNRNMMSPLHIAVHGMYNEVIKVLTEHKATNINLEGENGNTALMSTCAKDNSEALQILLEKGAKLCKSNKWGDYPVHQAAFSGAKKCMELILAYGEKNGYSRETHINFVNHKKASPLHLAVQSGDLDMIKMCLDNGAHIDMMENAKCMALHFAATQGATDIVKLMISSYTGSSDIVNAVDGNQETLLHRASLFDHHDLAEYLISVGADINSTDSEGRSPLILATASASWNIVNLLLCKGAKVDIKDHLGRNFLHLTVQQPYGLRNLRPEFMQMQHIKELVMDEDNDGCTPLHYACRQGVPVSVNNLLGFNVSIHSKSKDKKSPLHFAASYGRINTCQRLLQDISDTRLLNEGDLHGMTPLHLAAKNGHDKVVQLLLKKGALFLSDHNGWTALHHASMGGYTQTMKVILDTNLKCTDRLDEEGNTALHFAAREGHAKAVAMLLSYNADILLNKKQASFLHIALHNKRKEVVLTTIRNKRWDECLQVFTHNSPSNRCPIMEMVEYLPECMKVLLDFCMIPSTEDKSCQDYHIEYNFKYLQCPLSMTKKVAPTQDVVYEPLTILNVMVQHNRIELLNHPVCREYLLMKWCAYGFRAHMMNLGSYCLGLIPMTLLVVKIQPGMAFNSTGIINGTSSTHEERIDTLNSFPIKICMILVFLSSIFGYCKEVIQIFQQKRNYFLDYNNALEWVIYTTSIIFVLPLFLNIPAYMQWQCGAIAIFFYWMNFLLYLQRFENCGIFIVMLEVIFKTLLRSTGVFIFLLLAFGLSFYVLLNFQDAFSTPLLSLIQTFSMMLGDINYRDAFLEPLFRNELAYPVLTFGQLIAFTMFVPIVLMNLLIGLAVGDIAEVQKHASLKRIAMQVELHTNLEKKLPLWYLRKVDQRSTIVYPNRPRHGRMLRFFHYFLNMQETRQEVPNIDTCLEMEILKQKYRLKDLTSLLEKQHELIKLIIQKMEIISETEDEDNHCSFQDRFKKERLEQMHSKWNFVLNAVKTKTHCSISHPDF

IC50 (TRPA1): 0.42 µM
SMILES: CNCC[C@@H](Oc1cccc2ccoc12)c1cccs1 [Compound I-1, (R)-3-(benzofuran-7-yloxy)-N-methyl-3-(thiophen-2-yl)propyl-1-amine]
MPE % (Sprague-Dawley rats; 0.5 h after administration): 14.51 ± 6.87% | MPE % (Sprague-Dawley rats; 1 h after administration): 38.03 ± 5.66% | MPE % (Sprague-Dawley rats; 2 h after administration): 31.92 ± 6.79% | PWT(g), claw withdrawal threshold (SD rats): 7.869 ± 2.846 g | number of appearance of writhing reactions (visceral pain) within 30 min (ICR mice; 5 mg/kg by gavage): 19 times | number of visceral pain lower than the saline control group (ICR mice; 5 mg/kg by gavage, 19 times vs 49 times): 50% | number of appearance of writhing reactions (visceral pain) within 30 min (ICR mice; 10 mg/kg by gavage): 16 times | IC50 (SH-SY5Y cells): ~101 µM | Licking claw time (s) in phase II (10-60 min) (C57BL/6 mice; 0.1 mg/kg intraperitoneal): 321.55 ± 47.75 s | decrease of licking time in phase II (10-60 min) compared with the blank vehicle (C57BL/6 mice; 0.5 mg/kg intraperitoneal): more than 50% | Licking claw time (s) in phase II (10-60 min) (C57BL/6 mice; 0.5 mg/kg intraperitoneal): 161.25 ± 30.83 s | Licking claw time (s) in phase II (10-60 min) (C57BL/6 mice; 1 mg/kg intraperitoneal): 131.28 ± 23.99 s | Licking claw time (s) in phase II (10-60 min) (C57BL/6 mice; 5 mg/kg intraperitoneal): 87.85 ± 25.15 s | Licking claw time (s) in phase II (10-60 min) (C57BL/6 mice; 10 mg/kg intraperitoneal): 99.08 ± 19.73 s | ED50 times stronger than S-duloxetine (C57BL/6 mice; phase II, mice formalin model): 30.8 times | ED50 times stronger than compound C1 (C57BL/6 mice; phase II, mice formalin model): 8.5 times
